From patent publication US20030171579A1, “Urethane derivatives” (priority 2003, published 2003)

Assays:
factor Xa, human = factor Xa, human (Homo sapiens, UniProt P00742); test: Inhibition of factor Xa ("Affinity to receptors"); assay type: biochemical
Source text: The inhibition of factor Xa by the compounds according to the invention and the measurement of the anticoagulant and antithrombotic activity can be determined by conventional in-vitro or in-vivo methods. A suitable method is described, for example, by J. Hauptmann et al. in Thrombosis and Haemostasis 1990, 63, 220-223.
The inhibition of factor Xa can be measured, for example, by the method of T. Hara et al. in Thromb. Haemostas. 1994, 71, 314-319.

TF/VIIa = TF/VIIa (Homo sapiens, UniProt P08709); test: Inhibition of TF/VIIa ("Affinity to receptors"); assay type: biochemical
Sequence of TF/VIIa (P08709 213-466 limits assumed): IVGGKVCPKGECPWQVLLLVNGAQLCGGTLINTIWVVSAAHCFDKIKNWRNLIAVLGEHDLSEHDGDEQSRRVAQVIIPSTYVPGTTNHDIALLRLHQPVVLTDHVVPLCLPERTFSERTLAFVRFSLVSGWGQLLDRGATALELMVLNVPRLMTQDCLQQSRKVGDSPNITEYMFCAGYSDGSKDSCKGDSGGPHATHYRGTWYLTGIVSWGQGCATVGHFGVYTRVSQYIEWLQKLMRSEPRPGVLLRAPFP
Sequence of TF/VIIa (P08709 61-212 limits assumed): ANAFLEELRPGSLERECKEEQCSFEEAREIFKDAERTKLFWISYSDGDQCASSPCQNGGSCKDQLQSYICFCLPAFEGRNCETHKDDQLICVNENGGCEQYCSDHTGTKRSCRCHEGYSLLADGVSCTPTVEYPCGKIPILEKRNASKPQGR
Sequence of TF/VIIa (P13726 33-295 partner): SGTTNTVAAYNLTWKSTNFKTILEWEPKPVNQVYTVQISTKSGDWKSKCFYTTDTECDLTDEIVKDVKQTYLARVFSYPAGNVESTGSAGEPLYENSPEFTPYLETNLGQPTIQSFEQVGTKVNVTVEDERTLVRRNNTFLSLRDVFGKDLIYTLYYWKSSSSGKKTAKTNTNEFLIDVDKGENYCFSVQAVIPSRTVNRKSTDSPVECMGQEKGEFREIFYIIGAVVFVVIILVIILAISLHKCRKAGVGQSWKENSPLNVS
Source text: The inhibition of factor VIIa by the compounds according to the invention and the measurement of the anticoagulant and antithrombotic activity can be determined by conventional in-vitro or in-vivo methods. A conventional method for the measurement of the inhibition of factor VIIa is described, for example, by H. F. Ronning et al. in Thrombosis Research 1996, 84, 73-81.

Sequence of factor Xa, human (P00742 235-488 limits assumed): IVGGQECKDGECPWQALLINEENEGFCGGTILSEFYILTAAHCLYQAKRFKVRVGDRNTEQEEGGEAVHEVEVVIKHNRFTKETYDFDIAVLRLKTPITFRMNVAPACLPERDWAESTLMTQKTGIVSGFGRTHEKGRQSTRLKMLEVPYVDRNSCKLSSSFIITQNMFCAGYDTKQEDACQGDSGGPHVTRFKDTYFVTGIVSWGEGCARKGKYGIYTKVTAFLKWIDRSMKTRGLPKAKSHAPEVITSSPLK
Sequence of factor Xa, human (P00742 41-179 limits assumed): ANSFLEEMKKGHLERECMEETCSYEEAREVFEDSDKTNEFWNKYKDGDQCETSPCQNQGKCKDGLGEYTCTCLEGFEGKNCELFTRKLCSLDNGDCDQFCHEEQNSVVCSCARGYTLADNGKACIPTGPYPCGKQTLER

Q: Which results are given for CS(=O)(=O)c1ccccc1-c1ccc(NC(=O)N(Cc2ccccc2)Cc2cccc(C(=N)N)c2)cc1 [1-(3-amidinobenzyl)-3-(2′-methylsulfonylbiphenyl-4-yl)-1-benzylurea]?
A: IC50 (factor Xa, human): 80 nM; IC50 (TF/VIIa): 26 nM

Q: Which IC50 (factor Xa, human) does the source give for CCCN(Cc1cccc(C(=N)N)c1)C(=O)Nc1ccc(-c2ccccc2S(N)(=O)=O)cc1 [Example 3.3, 1-(3-amidino-benzyl)-3-(2′-sulfamoylbiphenyl-4-yl)-1-propylurea] here?
A: Its IC50 is 140 nM.

Q: And the melting point?
A: Its melting point is 166 to 167 °C.

Q: What about the IC50 (TF/VIIa) of the same molecule?
A: Its IC50 is 80 nM.

Q: For CCCN(Cc1cccc(C(=N)N)c1)C(=O)Nc1ccc(-c2ccccc2S(C)(=O)=O)cc1 [Example 4.3, 1-(3-amidino-benzyl)-3-(2′-methylsulfonylbiphenyl-4-yl)-1-propylurea], which IC50 (factor Xa, human) is on record?
A: Its IC50 is 100 nM.

Q: What about the IC50 (TF/VIIa) of the same molecule?
A: Its IC50 is 30 nM.

Q: For N=C(N)c1cccc(CN(C(=O)Nc2ccc(-c3ccccc3S(N)(=O)=O)cc2)c2ccccc2)c1 [Example 5.3, 1-(3-amidinobenzyl)-3-(2′-sulfamoylbiphenyl-4-yl)-1-phenylurea], which IC50 (factor Xa, human) is on record?
A: Its IC50 is 330 nM.

Q: What about the melting point of the same molecule?
A: Its melting point is 201 to 202 °C.

Q: And the IC50 (TF/VIIa)?
A: The IC50 was 100 nM.

Q: Which IC50 (factor Xa, human) does the source give for CS(=O)(=O)c1ccccc1-c1ccc(NC(=O)N(Cc2cccc(C(=N)N)c2)c2ccccc2)cc1 [Example 6.3, 1-(3-amidinobenzyl)-3-(2′-methylsulfonylbiphenyl-4-yl)-1-phenylurea] here?
A: Its IC50 is 300 nM.

Q: And the IC50 (TF/VIIa)?
A: The IC50 was 70 nM.
